Data reported in patent publication US8158637B2, “Quinazolines useful as modulators of voltage gated ion channels” (Vertex Pharmaceuticals Incorporated, priority 2005, dated 2012).

What follows are compounds tested against T1, NaV 1.8 channel (Homo sapiens, UniProt Q9Y5Y9) (assay: VIPR optical membrane potential assay with electrical stimulation, NaV1.8 inhibition). Conditions: activity against NaV 1.8 channel.
T1 construct: expressed in transfected cells; host or cells: HEK293
Assay type: cell-based
Protocol: Compounds of the invention are useful as antagonists of voltage-gated sodium ion channels. Antagonist properties of test compounds were assessed as follows. Cells expressing the NaV of interest were placed into microtiter plates. After an incubation period, the cells were stained with fluorescent dyes sensitive to the transmembrane potential. The test compounds were added to the microtiter plate. The cells were stimulated with either a chemical or electrical means to evoke a NaV dependent membrane potential change from unblocked channels, which was detected and measured with trans-membrane potential-sensitive dyes. Antagonists were detected as a decreased membrane potential response to the stimulus. The optical membrane potential assay utilized voltage-sensitive FRET sensors described by Gonzalez and Tsien (See, Gonzalez, J. E. and R. Y. Tsien (1995) “Voltage sensing by fluorescence resonance energy transfer in single cells” Biophys J 69(4): 1272-80, and Gonzalez, J. E. and R. Y. Tsien (1997) “Improved indicators of cell membrane potential that use fluorescence resonance energy transfer” Chem Biol 4(4): 269-77) in combination with instrumentation for measuring fluorescence changes such as the Voltage/Ion Probe Reader (VIPR®) (See, Gonzalez, J. E., K. Oades, et al. (1999) “Cell-based assays and instrumentation for screening ion-channel targets” Drug Discov Today 4(9): 431-439).
C) VIPR® Optical Membrane Potential Assay Method with Electrical Stimulation
The following was an example of how NaV1.8 inhibition activity was measured using the optical membrane potential method #2. Other subtypes were performed in an analogous mode in a cell line expressing the NaV of interest.
HEK293 cells stably expressing NaV1.8 were plated into 96-well microtiter plates. After an appropriate incubation period, the cells were stained with the voltage sensitive dyes CC2-DMPE/DiSBAC6(3) as follows.
2×CC2-DMPE/DiSBAC6(3)=8 μM CC2-DMPE/8 μM DiSBAC6(3): 10 mM CC2-DMPE and DiSBAC6(3) was vortexed with an equivalent volume of 10% pluronic, followed by vortexing in required amount of Bath Solution #1. Each cell plate required 5 mL of 2×CC2-DMPE/DiSBAC6(3). 50 μL of 2×CC2-DMPE/DiSBAC6(3) was added to wells containing washed cells, resulting in a 4 μM final staining concentration of both dyes. The cells were stained for 30 minutes in the dark at RT.
2×ABSC1=1 mM ABSC1: The required amount of 200 mM ABSC1 was added to a 50 ml conical tube and mixed with 1 μL 10% pluronic for each mL of solution made and vortexed together. Then Bath Solution #1 was added to make up a 2× solution. Finally, the ABSC1 was added.
The 2×ABSC1 solution was used to solvate compound plates. Note that compound plates were made at 2× drug concentration. The stained plate was washed again, leaving residual volume of 50 μL. Added 50 μL/well of the 2×ABSC1. The cells were stained for 30 minutes in the dark at RT.
The electrical stimulation instrument and methods of use are described in ION Channel Assay Methods PCT/US01/21652 and Nat Biotech 2006, 24(4), 439-446, both herein incorporated by reference. The instrument comprises a microtiter plate handler, an optical system for exciting the coumarin dye while simultaneously recording the coumarin and oxonol emissions, a waveform generator, a current- or voltage-controlled amplifier, and a device for inserting electrodes in well. Under integrated computer control, this instrument passed user-programmed electrical stimulus protocols to cells within the wells of the microtiter plate.
Assay Protocol • 1. Inserted or used electrodes into each well that was assayed. • 2. Used the current-controlled amplifier to deliver stimulation wave pulses for 3 s. Two seconds of pre-stimulus recording was performed to obtain the un-stimulated intensities. Five seconds of post-stimulation recording was performed to examine the relaxation to the resting state. […]

T1 sequence (Q9Y5Y9 whole entry): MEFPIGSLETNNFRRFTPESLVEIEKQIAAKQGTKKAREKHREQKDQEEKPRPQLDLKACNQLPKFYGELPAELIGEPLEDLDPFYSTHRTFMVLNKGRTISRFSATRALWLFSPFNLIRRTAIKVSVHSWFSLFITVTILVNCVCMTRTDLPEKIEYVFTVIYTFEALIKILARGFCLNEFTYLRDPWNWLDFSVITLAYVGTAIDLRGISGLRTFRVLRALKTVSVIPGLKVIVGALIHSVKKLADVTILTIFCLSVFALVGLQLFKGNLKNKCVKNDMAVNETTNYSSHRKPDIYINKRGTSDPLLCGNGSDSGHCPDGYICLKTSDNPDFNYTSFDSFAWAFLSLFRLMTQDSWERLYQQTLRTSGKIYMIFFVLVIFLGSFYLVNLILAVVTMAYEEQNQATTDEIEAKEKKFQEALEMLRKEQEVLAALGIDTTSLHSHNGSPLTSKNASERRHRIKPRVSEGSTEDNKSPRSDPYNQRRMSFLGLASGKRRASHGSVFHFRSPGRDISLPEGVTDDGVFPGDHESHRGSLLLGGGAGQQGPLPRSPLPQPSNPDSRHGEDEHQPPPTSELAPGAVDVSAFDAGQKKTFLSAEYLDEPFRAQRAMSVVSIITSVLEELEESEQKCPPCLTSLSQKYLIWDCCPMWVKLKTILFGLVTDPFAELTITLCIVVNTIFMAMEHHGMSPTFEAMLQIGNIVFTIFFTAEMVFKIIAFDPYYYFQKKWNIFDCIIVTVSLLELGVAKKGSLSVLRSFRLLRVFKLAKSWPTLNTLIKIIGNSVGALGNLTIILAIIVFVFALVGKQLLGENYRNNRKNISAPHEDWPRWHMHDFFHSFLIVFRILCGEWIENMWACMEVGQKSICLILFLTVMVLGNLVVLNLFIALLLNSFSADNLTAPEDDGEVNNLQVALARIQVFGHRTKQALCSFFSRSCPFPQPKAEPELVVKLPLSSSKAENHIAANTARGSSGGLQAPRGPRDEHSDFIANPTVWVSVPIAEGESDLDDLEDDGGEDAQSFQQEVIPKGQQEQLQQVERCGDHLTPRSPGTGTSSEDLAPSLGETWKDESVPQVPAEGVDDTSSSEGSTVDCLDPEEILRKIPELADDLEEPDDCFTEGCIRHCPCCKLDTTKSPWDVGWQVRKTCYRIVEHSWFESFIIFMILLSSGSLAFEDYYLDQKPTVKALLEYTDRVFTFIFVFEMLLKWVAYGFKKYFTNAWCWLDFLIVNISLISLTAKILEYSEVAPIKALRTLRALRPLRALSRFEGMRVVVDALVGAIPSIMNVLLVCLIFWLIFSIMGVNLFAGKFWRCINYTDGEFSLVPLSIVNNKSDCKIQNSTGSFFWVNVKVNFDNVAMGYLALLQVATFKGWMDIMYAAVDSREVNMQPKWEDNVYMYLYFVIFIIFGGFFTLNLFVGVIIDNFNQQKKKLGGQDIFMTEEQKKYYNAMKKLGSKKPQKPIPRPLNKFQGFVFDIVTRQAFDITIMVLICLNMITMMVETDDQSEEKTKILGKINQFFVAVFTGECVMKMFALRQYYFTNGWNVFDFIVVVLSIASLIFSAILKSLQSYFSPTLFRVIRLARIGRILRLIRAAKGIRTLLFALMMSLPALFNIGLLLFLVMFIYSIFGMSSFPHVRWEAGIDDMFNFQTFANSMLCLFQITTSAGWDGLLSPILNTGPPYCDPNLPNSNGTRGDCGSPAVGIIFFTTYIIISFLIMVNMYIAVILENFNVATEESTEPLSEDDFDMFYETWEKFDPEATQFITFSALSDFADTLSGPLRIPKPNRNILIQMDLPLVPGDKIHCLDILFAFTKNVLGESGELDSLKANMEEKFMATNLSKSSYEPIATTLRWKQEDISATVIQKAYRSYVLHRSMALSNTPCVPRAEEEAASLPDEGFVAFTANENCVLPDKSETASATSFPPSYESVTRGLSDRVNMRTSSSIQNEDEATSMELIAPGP

IC50 | SMILES
1000 to 5000 nM | CCOC(=O)N[C@@H]1CCN(c2nc(-c3c(O)cccc3F)nc3cc(C)ccc23)C1 [Compound 10, (R)-Ethyl 1-(2-(2-fluoro-6-hydroxyphenyl)-7-methylquinazolin-4-yl)pyrrolidin-3-ylcarbamate]
1000 to 5000 nM | CC(C)COC(=O)N[C@@H]1CCN(c2nc(-c3ccccc3O)nc3ccc(F)cc23)C1 [Compound 15, (R)-Isobutyl 1-(6-fluoro-2-(2-hydroxyphenyl)quinazolin-4-yl)pyrrolidin-3-ylcarbamate]
1000 to 5000 nM | CC(C)OC(=O)N[C@@H]1CCN(c2nc(-c3ccccc3O)nc3ccc(F)cc23)C1 [Compound 16, (R)-Isopropyl 1-(6-fluoro-2-(2-hydroxyphenyl)quinazolin-4-yl)pyrrolidin-3-ylcarbamate]
< 1000 nM | Cc1ccc2c(N3CC[C@@H](NC(=O)OCC(C)C)C3)nc(-c3ccccc3C(F)F)nc2c1 [Compound 17, (R)-Isobutyl 1-(2-(2-(difluoromethyl)phenyl)-7-methylquinazolin-4-yl)pyrrolidin-3-ylcarbamate]
1000 to 5000 nM | COCCOC(=O)N[C@@H]1CCN(c2nc(-c3ccccc3O)nc3cc(C)ccc23)C1 [Compound 14, (R)-2-Methoxyethyl 1-(2-(2-hydroxyphenyl)-7-methylquinazolin-4-yl)pyrrolidin-3-ylcarbamate]
< 1000 nM | Cc1ccc2c(N3CC[C@@H](NC(=O)OCC(C)(C)C)C3)nc(-c3ccccc3C(F)F)nc2c1 [Compound 18, (R)-Neopentyl 1-(2-(2-(difluoromethyl)phenyl)-7-methylquinazolin-4-yl)pyrrolidin-3-ylcarbamate]
< 1000 nM | CCCOC(=O)N[C@@H]1CCN(c2nc(-c3c(O)cccc3F)nc3cc(C)ccc23)C1 [Compound 13, (R)-Propyl 1-(2-(2-fluoro-6-hydroxyphenyl)-7-methylquinazolin-4-yl)pyrrolidin-3-ylcarbamate]
< 1000 nM | Cc1ccc2c(N3CC[C@@H](NC(=O)OCC(C)C)C3)nc(-c3c(O)cccc3F)nc2c1 [Compound 8, (R)-Isobutyl 1-(2-(2-fluoro-6-hydroxyphenyl)-7-methylquinazolin-4-yl)pyrrolidin-3-ylcarbamate]
< 1000 nM | Cc1ccc2c(N3CC[C@@H](NC(=O)OCC(C)(C)C)C3)nc(-c3ccccc3O)nc2c1 [Compound 9, (R)-Neopentyl 1-(2-(2-hydroxyphenyl)-7-methylquinazolin-4-yl)pyrrolidin-3-ylcarbamate]
< 1000 nM | Cc1ccc2c(N3CC[C@@H](NC(=O)OC(C)C)C3)nc(-c3ccccc3O)nc2c1 [Compound 12, (R)-Isopropyl 1-(2-(2-hydroxyphenyl)-7-methylquinazolin-4-yl)pyrrolidin-3-ylcarbamate]
< 1000 nM | Cc1ccc2c(N3CC[C@@H](NC(=O)OCC(C)(C)C)C3)nc(-c3c(O)cccc3F)nc2c1 [Compound 11, (R)-Neopentyl 1-(2-(2-fluoro-6-hydroxyphenyl)-7-methylquinazolin-4-yl)pyrrolidin-3-ylcarbamate]

The next lines start with the compound.

SMILES | IC50
Cc1ccc2c(N3CC[C@H](NC(=O)OCC(C)C)C3)nc(-c3ccccc3O)nc2c1 [Compound 7, (S)-{1-[2-(2-Hydroxy-phenyl)-7-methyl-quinazolin-4-yl]-pyrrolidin-3-yl}-carbamic acid isobutyl ester] | 1000 to 5000 nM
COCCOC(=O)N[C@@H]1CCN(c2nc(-c3c(O)cccc3F)nc3cc(C)ccc23)C1 [Compound 1, (R)-2-Methoxyethyl 1-(2-(2-fluoro-6-hydroxyphenyl)-7-methylquinazolin-4-yl)pyrrolidin-3-ylcarbamate] | 1000 to 5000 nM
Cc1ccc2c(N3CC[C@@H](NC(=O)OCC(C)C)C3)nc(-c3ccccc3O)nc2c1 [Compound 5, (R)-Isobutyl 1-(2-(2-hydroxyphenyl)-7-methylquinazolin-4-yl)pyrrolidin-3-ylcarbamate] | < 1000 nM
CC(C)(C)COC(=O)N[C@@H]1CCN(c2nc(-c3ccccc3O)nc3ccc(F)cc23)C1 [Compound 4, (R)-Neopentyl 1-(6-fluoro-2-(2-hydroxyphenyl)quinazolin-4-yl)pyrrolidin-3-ylcarbamate] | > 5000 nM
COCCOC(=O)N[C@H]1CCN(c2nc(-c3ccccc3O)nc3cc(C)ccc23)C1 [Compound 6, (S)-{1-[2-(2-Hydroxy-phenyl)-7-methyl-quinazolin-4-yl]-pyrrolidin-3-yl}-carbamic acid 2-methoxy-ethyl ester] | > 5000 nM
CCOC(=O)N[C@@H]1CCN(c2nc(-c3ccccc3O)nc3cc(C)ccc23)C1 [Compound 2, (R)-Ethyl 1-(2-(2-hydroxyphenyl)-7-methylquinazolin-4-yl)pyrrolidin-3-ylcarbamate] | < 1000 nM
CCCOC(=O)N[C@@H]1CCN(c2nc(-c3ccccc3O)nc3cc(C)ccc23)C1 [Compound 3, (R)-Propyl 1-(2-(2-hydroxyphenyl)-7-methylquinazolin-4-yl)pyrrolidin-3-ylcarbamate] | < 1000 nM
